# Where a name gives a salt, the structure may show the parent alone.
# Key:
# Type in all cases: in vivo
# [1] = test system: corn (Beck's hybrid 5828 YH); experiment: Corn growth rate under droughted conditions, alternative osmoprotectants; settings: two weeks un-watered; Anti-Respirant Control A 29.0%
# Description: Stachydrine was selected as an osmoprotectant that acts as a negative control due to its functional role in the induction of nodulation (Phillips, D. A., Joseph, C. M., Maxwell, C. A., “Trigonelle and stachydrine released from alfalfa seeds activate NodD2 protein in Rhizobium meliloti” (1992) Plant Physiology 99: 1526-1531). Stachydrine acts through a different mode of action as compared to the betaine-HCl osmoprotectant. Plant growth rates under droughted conditions were compared in corn treated with foliar applications comprising betaine-HCl, strachydrine or myo-inositol (see Table 37). Corn (Beck's hybrid 5828 YH) plants were planted in an environmentally controlled growth facility and grown using the conditions described in the first paragraph of this example. At 1.5 weeks, the plants were provided with another 50 mL of water per pot and plant height was measured for each plant. Plants were then segregated to prevent any cross contamination between the foliar treatments. […] Relative percent growth rate under droughted conditions was calculated for each plant in each treatment replicate using the percent (%) growth rate equation (as provided above in this Example). […]
# [2] = test system: corn (Beck's hybrid 5828 YH); experiment: Soil drench of corn seedlings under drought, growth during V2-V3 transition; settings: for % Δ in Plant Height Compared to Control: 11 DAP to 14 DAP, vs water-only control; for change in plant height during V2 to V3 transition compared to water-only control: soil drench at planting and day 3, 11 to 14 days after planting; for Plant Growth during the transition of V2-V3 stage (11 DAP to 14 DAP): soil drench, each component 438.5 mL/hectare, droughted conditions
# Description: The anti-respirant also functioned as an infiltration surfactant (above-soil surfactant or penetrant) and the anti-desiccant functioned as a humectant. […] A combined treatment with betaine-HCl (osmoprotectant), an infiltration surfactant (anti-respirant) and a humectant (anti-desiccant) was also compared with other drench treatments and a water-only control. Glycerol, a polyol compound that has three hydroxyl groups that are responsible for its solubility in water and its hydroscopic nature, was selected as a viscous humectant to combine with the betaine-HCl osmoprotectant and the infiltration surfactant. This triple treatment combination was selected based on its mode of action properties in soil drench applications that promote the retention and management of moisture by attracting moisture and condensing it for contact to the germinating seed and/or growing plant. The treatment combination was provided as a soil drench at the time of planting and again at emergence to promote rapid growth at the early V stages of development, enhance early vigor, provide for a robust stand establishment, and protect against the effects of drought during early seedling establishment. The betaine-HCl osmoprotectant was provided at a final application concentration of 83.49 mM. The infiltration surfactant was diluted in water at the recommended application use rate using a ratio of 1:1600 (surfactant to water) (52.9 μM). The humectant was provided at a final application treatment of 1% diluted in water (136.8 mM). The individual and combined treatments were provided using the application use rates (Fl. oz/Ac) as specified in Tables 54 and 55. […] In Table 55, the application use rates for all three components were the same. […] Seeds were planted at a depth of 2.54 cm, with two seeds per pot. After planting, seeds were supplied with 50 mL of the each of the treatments (as described in Tables 54 and 55) at room temperature and added to the soil in each pot as a soil drench provided at an equivalent application use rate as specified. […] After application of the second drench, the plants were left un-watered to induce and simulate droughted conditions that may occur during early seedling establishment. […] At 11 days after planting, plant height was determined for each plant in the various treatments. Corn plants provided with treatments as described in Table 55 received an additional 50 mL of water at 11 days after planting.
# [3] = test system: soybean (Asgrow AG4034); experiment: R2 soybean yield, trehalose, potassium acetate and SILWET L-77; settings: for Avg. Yield (Bu/Ac): foliar at R2 soybean AG4034, three locations; for Avg. Δ in Yield (Bu/Ac): vs base seed treatment control
# Description: In another experiment, large acre yield replicated trials of soybean (variety: Asgrow AG4034) were planted from seed treated with a base seed treatment package containing […]® fungicide and PONCHO®/VOTIVO® 500 in three locations in the US Midwest (IL). […] Trehalose is a non-reducing carbohydrate resistant to acid hydrolysis and stable in solution under high temperatures and acidic conditions. Trehalose was applied separately and in combination with a non-blended organosilicone surfactant ([…]-77) as a foliar spray application to soybean plants. Final concentrations at application were as follows: […]
# [4] = test system: corn (DKC 58-89, DKC 52-61, DKC 65-81); experiment: V5 corn yield, choline chloride, calcium chloride and PLURONIC F-68; settings: for yield increase compared to base seed treatment control plants: foliar at V5; for Avg. Yield (Bu/Ac) Trial 1 / Avg. Yield (Bu/Ac) Trial 2: foliar at V5 corn; for Avg. Yield (Bu/Ac) Trial 1: three hybrids (* two hybrids only), trial 1, one location; for Avg. Yield (Bu/Ac) Trial 2: three hybrids; for Avg. Δ in Yield (Bu/Ac): vs base seed treatment control, average of trials 1 and 2
# Description: In a separate experiment, large acre field trials were conducted using one and two location trials in the US Midwest (IL) planted with three different corn hybrids (DEKALB: DKC 58-89; DKC 52-61; DKC 65-81). Seed from each of the corn hybrids was coated with a seed treatment of EVERGOL® fungicide combined with PONCHO®/VOTIVO® 500. Foliar treatments comprising a non-ionic polyoxyethylene-polyoxypropylene block copolymer surfactant (PLURONIC F-68, an anti-respirant), a quaternary ammonium salt (choline chloride) and/or a di-hydrated salt (calcium chloride) were applied to corn plants at the V5 stage of development. The foliar treatments were applied using the final concentrations and application use rates as described in Table 42. Choline chloride was selected for its osmolyte-like properties. Choline chloride is a precursor of acetylcholine and is involved in the regulation of water resorption in plants. Choline chloride was tested as a foliar application treatment individually and in combination an anti-respirant (PLURONIC F 68 surfactant). Average yield in Bu/Ac was reported for two trials. Trial 1 was conducted at one location and trial 2 was conducted at two locations in the US Midwest (IL). Yield (Bu/Ac) is reported as the average yield across location(s) and as the average for all three hybrids except where indicated in Table 42 and as the average change in yield (Bu/Ac) compared to the yield from the seed treatment control plants. The Base Seed Treatment control plants received only the EVERGOL® fungicide+PONCHO®/VOTIVO® 500 seed treatment and not any foliar treatments.
smiles,measurement,setting,value
"O[C@H]1[C@H](O)[C@@H](O)[C@H](O)[C@@H](O)[C@H]1O [Myo-inositol, myo-inositol]",Relative Growth Rate (%) under Droughted Conditions,[1],31.1%
"C[N+](C)(C)CC(=O)O [osmoprotectant-only control, betaine-HCl]",% Δ in Plant Height Compared to Control,[2],+8%
same,change in plant height during V2 to V3 transition compared to water-only control,[2],+8%
same,Plant Growth during the transition of V2-V3 stage (11 DAP to 14 DAP),[2],3.11 cm
OC[C@H]1O[C@H](O[C@H]2O[C@H](CO)[C@@H](O)[C@H](O)[C@H]2O)[C@H](O)[C@@H](O)[C@@H]1O [trehalose],average change in soybean yield compared to seed treatment-only control,"[3]; R2, trehalose 6.4 Fl. oz/Ac, SILWET L-77 3.2 Fl. oz/Ac, three locations",+1.49 Bu/Ac
same,Avg. Yield (Bu/Ac),[3],68.3 Bu/Ac
same,Avg. Δ in Yield (Bu/Ac),[3]; three locations,+1.49 Bu/Ac
CC(=O)[O-].[K+] [Potassium Acetate],Avg. Yield (Bu/Ac),[3],67.2 Bu/Ac
same,Avg. Δ in Yield (Bu/Ac),[3]; three locations,+0.35 Bu/Ac
C[N+](C)(C)CCO.[Cl-] [choline chloride],yield increase compared to base seed treatment control plants,[4],+8.5 Bu/Ac
same,Avg. Yield (Bu/Ac) Trial 1,[4],207.3* Bu/Ac
same,Avg. Yield (Bu/Ac) Trial 2,[4],157.2 Bu/Ac
same,Avg. Δ in Yield (Bu/Ac),[4],+8.5 Bu/Ac
[Ca+2].[Cl-].[Cl-] [calcium chloride],yield increase compared to base seed treatment control plants,[4],+11.8 Bu/Ac
O.O.[Ca+2].[Cl-].[Cl-] [Calcium Chloride (dihydrate)],Avg. Yield (Bu/Ac) Trial 1,[4],201.4 Bu/Ac
same,Avg. Yield (Bu/Ac) Trial 2,[4],169.6 Bu/Ac
same,Avg. Δ in Yield (Bu/Ac),[4],+11.8 Bu/Ac
"OCC(O)CO [humectant-only control, glycerol]",% Δ in Plant Height Compared to Control,[2],+3%
same,change in plant height during V2 to V3 transition compared to water-only control,[2],+3%
same,Plant Growth during the transition of V2-V3 stage (11 DAP to 14 DAP),[2],2.98 cm

# Reference: US20220338470A1, “AGRICULTURAL COMPOSITIONS FOR IMPROVED CROP PRODUCTIVITY AND ENHANCED PHENOTYPES” (Spogen Biotech Inc., priority 2018, published 2022)
